Numbers after ± are expanded uncertainties.
Key:
[1] = 298.2 K; 101.33 kPa; Liquid; Vibrating tube method
[2] = Boiling temperature at pressure P; details: 101.33 kPa; Liquid; Distillation
[3] = refractive index (Na D-line) (dimensionless); details: 298.2 K; 101.33 kPa; Liquid; Standard Abbe refractometry

Compound	mass density [1] [kg/m3]	Boiling temperature at pressure P [2] [°C]	refractive index [3]
CC(=O)O [acetic acid]	1049.42 ± 0.26	118.1 ± 0.3	1.3713 ± 0.0003
COC(=O)OC [dimethyl carbonate]	1061.9 ± 0.38	90.08 ± 0.29	1.3685 ± 0.0004
O [water]		100.1 ± 0.3	1.3324 ± 0.0003
